Assay results as given in US4314061A, “Certain 3,6-bis-(heteroaminoalkoxy) acridines” (priority 1980, dated 1982).

Columns and labels:
[1] = tested on: Lewis lung carcinoma; experiment: Antitumor activity against intravenously inoculated Lewis lung carcinoma in mice; format: in vivo, BDF1 mice; settings: Day +19
Experimental: Lewis lung carcinoma cells, 5×10^5 viable cells, were injected intravenously into BDF1 mice. The drug was prepared in normal saline and administered once daily, by the oral route, at doses ranging from 38 mg./kg to 400 mg/kg on days 1, 7, and 13 following tumor cell inoculation. A control group of mice received a saline placebo, instead of drug, by the oral route on the same days of treatment. All mice were sacrificed on day 19 following tumor inoculation, their lungs removed and individually weighed. Additionally, a group of 10 normal, non-tumor bearing BDF1 mice, of the same sex, age, and body weight as the tumor bearing mice, were sacrificed and their lungs removed and weighed to determine the average normal lung weight. The average normal lung weight was subtracted from the weight of lungs from the tumored mice to determine the weight of tumorous tissue present in the lungs of the tumor bearing mice. A postive drug effect is indicated by a ≥58% reduction in the average lung tumor weight of the drug treated mice, relative to the average lung tumor weight of the saline placebo treated mice.
^1 BDF1 male mice inoculated intravenously with 5 ×
10^5 Lewis lung tumor cells on day zero:
3,6bis(2-diethylaminoethoxy)acridine trihydrochloride administered on day
1,7, and 13 after tumor inoculation.
^2 Average lung tumor weight = average weight of lungs from tumor
bearing mice, minus average weight of lungs from normal, nontumor bearing
*Denotes significant (≥58%) inhibition of lung tumor weight.

[2] = tested on: B16 melanoma; experiment: Surgical-adjuvant antitumor activity against B16 melanoma implanted subcutaneously in footpads; format: in vivo, BDF1 mice; settings: for Average % of tumor weight inhibition / Average tumor weight: Day +21; for No. Survivors/No. Treated: at +90 days
Experimental: BDF1 mice were inoculated subcutaneously in the right hind footpad with 5×10^5 viable B16 melanoma cells, on day zero. The drug was prepared in normal saline and administered by the oral route once daily, on days 1, 7, and 13 following tumor implantation, at doses range from 50 mg/kg to 400 mg/kg. A control group of mice received a saline placebo instead of drug, and another group of tumor bearing mice received the positive control drug cyclophosphamide, at 100 mg/kg, by intraperitoneal injection. On the 21st day after tumor implantation, the mice were anesthesized with Nembutal, and the tumor bearing feet were surgically amputated above the ankle joint. The surgical incision was swabbed with alcohol and sealed with stainless steel wound clips. The tumor bearing feet were individually weighed and the average weight of a normal foot (determined by weighing amputated feet from non-tumor bearing mice of the same sex, age, and body weight) was subtracted to obtain the weight of tumor tissue in the amputated feet. Mice were then observed for deaths until the 90th day after tumor implantation. […]
^1 BDF1 male mice inocluated with 5 × 10^5 B16 melanom
cells subcutaneously in footpad on day zero;
3,6bis(2-diethylaminoethoxy)acridine trihydrochloride administered orally
and Cyclophosphamide intraperitoneally, on days 1, 7, and 13 following
^2 Average tumor weight determined after surgical amputation of tumor
bearing foot on day 21 following tumor implantation.

[3] = tested on: B-16 melanoma; experiment: Potentiation of cyclophosphamide (Cytoxan) activity against B16 melanoma in mice; format: in vivo, BDF1 mice
Experimental: BDF1 male mice were inoculated subcutaneously with 0.25 ml. of a 10% B-16 melanoma homogenate. Cyclophosphamide was administered intraperitoneally at 80 mg./kg. the second day following the day of tumor implantation. Test compounds were given intraperitoneally on days +6, +8 and +10 relative to tumor implantation. […]
BDF1 male mice inoculated subcutaneously with 0.25 ml. of a 10% tumo
homogenate on day 0. Drugs were administered intraperitoneally;
cyclophosphoamide on day 2, 3,6bis(2-diethylaminoethoxy)acridine
trihydrochloride on days 6, 8 and 10.
^1 Number of survivors over number of mice treated.

[4] = tested on: Rauscher Virus-Induced Leukemia; experiment: Inhibition of splenomegaly in mice with Rauscher virus-induced leukemia; format: in vivo, Balb/c mice
[5] = tested on: Rauscher Virus-Induced Leukemia; experiment: Restoration of antibody formation in mice with Rauscher virus-induced leukemia; format: in vivo, Balb/c mice; settings: 100 mg/kg IP
[6] = 300 mg/kg oral, * significant (≥58%)
[7] = 400 mg/kg oral, * significant (≥58%)
[8] = 25 mg/kg i.p. + cyclophosphamide 80 mg/kg
[9] = 25 mg/kg i.p. + cyclophosphamide 80 mg/kg, day 21
[10] = 50 mg/kg i.p. + cyclophosphamide 80 mg/kg
[11] = 50 mg/kg i.p. + cyclophosphamide 80 mg/kg, day 21
[12] = 100 mg/kg i.p. + cyclophosphamide 80 mg/kg
[13] = 100 mg/kg i.p. + cyclophosphamide 80 mg/kg, day 21

CCN(CC)CCOc1ccc2cc3ccc(OCCN(CC)CC)cc3nc2c1.Cl.Cl.Cl
Average % tumor inhibition ([1]; 38 mg/kg oral): 33% | Average lung tumor weight ([1]; 38 mg/kg oral): 99 mg | No. Survivors/No. Treated ([1]; 38 mg/kg oral): 10/12 | Average % tumor inhibition ([1]; 75 mg/kg oral): 5% | Average lung tumor weight ([1]; 75 mg/kg oral): 139 mg | No. Survivors/No. Treated ([1]; 75 mg/kg oral): 12/12 | Average % tumor inhibition ([1]; 150 mg/kg oral): 51% | Average lung tumor weight ([1]; 150 mg/kg oral): 72 mg | No. Survivors/No. Treated ([1]; 150 mg/kg oral): 12/12 | Average lung tumor weight ([1]; 300 mg/kg oral): 40 mg | No. Survivors/No. Treated ([1]; 300 mg/kg oral): 12/12 | Average % tumor inhibition [1, 6]: 73% | Average lung tumor weight ([1]; 400 mg/kg oral): 12 mg | No. Survivors/No. Treated ([1]; 400 mg/kg oral): 10/12 | Average % tumor inhibition [1, 7]: 92% | % Increased life-span ([2]; 50 mg/kg oral): 2% | Median survival time ([2]; 50 mg/kg oral): 54.0 days | Average % of tumor weight inhibition ([2]; 50 mg/kg oral): 33% | Average tumor weight ([2]; 50 mg/kg oral): 403 mg | No. Survivors/No. Treated ([2]; 50 mg/kg oral): 0/12 | % Increased life-span ([2]; 100 mg/kg oral): 21% | Median survival time ([2]; 100 mg/kg oral): 64.0 days | Average tumor weight ([2]; 100 mg/kg oral): 225 mg | Average % of tumor weight inhibition ([2]; 100 mg/kg oral, * significant (≥58%)): 63% | No. Survivors/No. Treated ([2]; 100 mg/kg oral): 2/12 | Median survival time ([2]; 200 mg/kg oral): > 90.0 days | Average tumor weight ([2]; 200 mg/kg oral): 122 mg | Average % of tumor weight inhibition ([2]; 200 mg/kg oral, * significant (≥58%)): 80% | No. Survivors/No. Treated ([2]; 200 mg/kg oral, ** significant): 7/12 | % Increased life-span ([2]; 200 mg/kg oral, + significant (≥25%)): > 70% | Median survival time ([2]; 300 mg/kg oral): > 90.0 days | Average tumor weight ([2]; 300 mg/kg oral): 63 mg | Average % of tumor weight inhibition [2, 6]: 90% | No. Survivors/No. Treated ([2]; 300 mg/kg oral, ** significant): 8/12 | % Increased life-span ([2]; 300 mg/kg oral, + significant (≥25%)): > 70% | Median survival time ([2]; 400 mg/kg oral): 69.0 days | Average tumor weight ([2]; 400 mg/kg oral): 51 mg | Average % of tumor weight inhibition [2, 7]: 92% | No. Survivors/No. Treated ([2]; 400 mg/kg oral, ** significant): 5/12 | % Increased life-span ([2]; 400 mg/kg oral, + significant (≥25%)): 30% | ILS (Percent increase in life span over control) [3, 8]: 31% | MST (Median Survival Time) [3, 8]: 29.5 days | Average tumor weight [3, 9]: 2029 mg | Number of survivors over number of mice treated [3, 9]: 8/8 | Number of survivors over number of mice treated ([3]; 25 mg/kg i.p. + cyclophosphamide 80 mg/kg, day 26): 6/8 | Average tumor weight ([3]; 25 mg/kg i.p. + cyclophosphamide 80 mg/kg, day 26, p <0.05 vs cyclophosphamide alone and vs either drug alone): 3125 mg | ILS (Percent increase in life span over control) ([3]; 25 mg/kg i.p. alone): 27% | MST (Median Survival Time) ([3]; 25 mg/kg i.p. alone): 28.5 days | Average tumor weight ([3]; 25 mg/kg i.p. alone, day 21): 2625 mg | Number of survivors over number of mice treated ([3]; 25 mg/kg i.p. alone, day 21): 7/8 | Number of survivors over number of mice treated ([3]; 25 mg/kg i.p. alone, day 26): 5/8 | Average tumor weight ([3]; 25 mg/kg i.p. alone, day 26, p <0.05 vs untreated): 6303 mg | ILS (Percent increase in life span over control) [3, 10]: 27% | MST (Median Survival Time) [3, 10]: 28.5 days | Average tumor weight [3, 11]: 2041 mg | Number of survivors over number of mice treated [3, 11]: 8/8 | Number of survivors over number of mice treated ([3]; 50 mg/kg i.p. + cyclophosphamide 80 mg/kg, day 26): 7/8 | Average tumor weight ([3]; 50 mg/kg i.p. + cyclophosphamide 80 mg/kg, day 26, p <0.05 vs cyclophosphamide alone): 4258 mg | ILS (Percent increase in life span over control) ([3]; 50 mg/kg i.p. alone): 18% | MST (Median Survival Time) ([3]; 50 mg/kg i.p. alone): 26.5 days | Number of survivors over number of mice treated ([3]; 50 mg/kg i.p. alone, day 21): 7/8 | Average tumor weight ([3]; 50 mg/kg i.p. alone, day 21, p <0.05 vs untreated): 2168 mg | Number of survivors over number of mice treated ([3]; 50 mg/kg i.p. alone, day 26): 4/8 | Average tumor weight ([3]; 50 mg/kg i.p. alone, day 26, p <0.05 vs untreated): 3111 mg | ILS (Percent increase in life span over control) [3, 12]: 22% | MST (Median Survival Time) [3, 12]: 27.5 days | Average tumor weight [3, 13]: 1532 mg | Number of survivors over number of mice treated [3, 13]: 8/8 | Number of survivors over number of mice treated ([3]; 100 mg/kg i.p. + cyclophosphamide 80 mg/kg, day 26): 5/8 | Average tumor weight ([3]; 100 mg/kg i.p. + cyclophosphamide 80 mg/kg, day 26, p <0.05 vs cyclophosphamide alone): 2836 mg | ILS (Percent increase in life span over control) ([3]; 100 mg/kg i.p. alone): 22% | MST (Median Survival Time) ([3]; 100 mg/kg i.p. alone): 27.5 days | Number of survivors over number of mice treated ([3]; 100 mg/kg i.p. alone, day 21): 7/8 | Average tumor weight ([3]; 100 mg/kg i.p. alone, day 21, p <0.05 vs untreated): 1892 mg | Number of survivors over number of mice treated ([3]; 100 mg/kg i.p. alone, day 26): 7/8 | Average tumor weight ([3]; 100 mg/kg i.p. alone, day 26, p <0.05 vs untreated): 4127 mg | inhibition in local tumor growth ([3]; in combination with Cytoxan, i.p., day +26): 50% | 50% inhibition in local tumor growth, in words ([3]; monotherapy, i.p., day +26): failed to do so | % Reduction in splenomegaly ([4]; 50 mg/kg): 68% | % Reduction in splenomegaly ([4]; 100 mg/kg): 71% | Serum hemagglutinin titer/saline control titer [5]: 512/32
